Results as given in paper PMC10793205, “Differential transmetallation of complexes of the anti-cancer thiosemicarbazone, Dp4e4mT: effects on anti-proliferative efficacy, redox activity, oxy-myoglobin and oxy-hemoglobin oxidation” (Chemical Science, 2023).

Test system: AsPC-1 cells
Assay: MTT cellular proliferation assay, AsPC-1 pancreatic adenocarcinoma cells
Assay type: cell-based, human
Conditions: AsPC-1, 24 h, 37 °C, MTT, mean ± SD (3 experiments)
Description: The anti-proliferative activity of Dp4e4mT relative to its complexes with Fe(III), Co(III), Ni(II), Cu(II), Zn(II), Ga(III), and Pd(II) was examined over incubation periods of 24-, 48-, and 72 h/37 °C (Table 2). These studies were performed using human SK-N-MC neuroepithelioma and AsPC-1 pancreatic adenocarcinoma cells that we have previously examined to assay other ligands.[15,28,43] […]
All cell lines were procured from the American Type Culture Collection (ATCC; Manassas, VA). The SK-N-MC neuroepithelioma cell line and the mortal MRC-5 fibroblasts were cultured in minimum essential medium (Sigma-Aldrich), while the AsPC-1 cell line was cultured in Roswell Park Memorial Institute 1640 medium (Thermo Fisher Scientific, MA, USA). Both media were supplemented with 10% fetal calf serum, non-essential amino acids (1 mM), sodium pyruvate (1 mM), L-glutamine (2 mM), penicillin (100 U/mL), streptomycin (100 U/mL), and Fungizone (0.5 µg/mL). Cells were maintained at 37 °C in an incubator under a humidified atmosphere with 5% CO 2, following established protocols. 11 Cellular Proliferation Assay
Cellular proliferation was evaluated through the established 3-(4,5-dimethylthiazol-2-yl)-2,5-diphenyltetrazolium bromide (MTT) proliferation assay, validated by viable cell counts.12 […]
Ligands and complexes were dissolved in DMSO to make a stock solution of 10 mM, subsequently diluted in culture media. For cell culture experiments, the DMSO's maximum concentration remained below 0.5% (v/v), with no discernible impact on proliferation.12 MTT […]
Trypan blue staining.12 Analysis of the data was executed employing MARS Data Analysis Software (BMG LabTech; version 3.30). The concentration of agents necessary to inhibit cellular proliferation by 50% (IC 50) was then calculated. […]

Row | IC50 [nM] | SMILES
1 | 2431 ± 15 | CCN(C)C([S-])=NN=C(c1ccccn1)c1ccccn1.CCN(C)C([S-])=NN=C(c1ccccn1)c1ccccn1.[Ga+3] [[Ga(Dp4e4mT)2]^+]
2 | 9522 ± 91 | CCN(C)C([S-])=NN=C(c1ccccn1)c1ccccn1.CCN(C)C([S-])=NN=C(c1ccccn1)c1ccccn1.[Co+3] [[Co(Dp4e4mT)2]^+]
3 | 1074 ± 6 | CCN(C)C([S-])=NN=C(c1ccccn1)c1ccccn1.[Cl-].[Cu+2] [[Cu(Dp4e4mT)Cl]]
4 | > 25000 | CCN(C)C([S-])=NN=C(c1ccccn1)c1ccccn1.[Cl-].[Pd+2] [[Pd(Dp4e4mT)Cl]]
5 | > 25000 | CCN(C)C([S-])=NN=C(c1ccccn1)c1ccccn1.CCN(C)C([S-])=NN=C(c1ccccn1)c1ccccn1.[Ni+2] [[Ni(Dp4e4mT)2]]

Same assay, conditions: AsPC-1, 24 h, 37 °C, MTT, mean ± SD (3 experiments); listed as Dp4e4mT Ga(III) complex

Row | IC50 [nM] | SMILES
6 | 1730 to 2430 | CCN(C)C([S-])=NN=C(c1ccccn1)c1ccccn1.CCN(C)C([S-])=NN=C(c1ccccn1)c1ccccn1.[Ga+3] [[Ga(Dp4e4mT)2]^+]

Same assay, conditions: AsPC-1, 48 h, 37 °C, MTT, mean ± SD (3 experiments)

Row | IC50 [nM] | SMILES
7 | 47 ± 6 | CCN(C)C([S-])=NN=C(c1ccccn1)c1ccccn1.CCN(C)C([S-])=NN=C(c1ccccn1)c1ccccn1.[Ga+3] [[Ga(Dp4e4mT)2]^+]
8 | 2680 ± 78 | CCN(C)C([S-])=NN=C(c1ccccn1)c1ccccn1.CCN(C)C([S-])=NN=C(c1ccccn1)c1ccccn1.[Co+3] [[Co(Dp4e4mT)2]^+]
9 | 42 ± 6 | CCN(C)C([S-])=NN=C(c1ccccn1)c1ccccn1.[Cl-].[Cu+2] [[Cu(Dp4e4mT)Cl]]
10 | 1340 ± 74 | CCN(C)C([S-])=NN=C(c1ccccn1)c1ccccn1.[Cl-].[Pd+2] [[Pd(Dp4e4mT)Cl]]
11 | 234 ± 83 | CCN(C)C([S-])=NN=C(c1ccccn1)c1ccccn1.CCN(C)C([S-])=NN=C(c1ccccn1)c1ccccn1.[Ni+2] [[Ni(Dp4e4mT)2]]

Same assay, conditions: AsPC-1, 72 h, 37 °C, MTT, mean ± SD (3 experiments)

Row | IC50 [nM] | SMILES
12 | 5 ± 1 | CCN(C)C([S-])=NN=C(c1ccccn1)c1ccccn1.CCN(C)C([S-])=NN=C(c1ccccn1)c1ccccn1.[Ga+3] [[Ga(Dp4e4mT)2]^+]
13 | 1570 ± 257 | CCN(C)C([S-])=NN=C(c1ccccn1)c1ccccn1.CCN(C)C([S-])=NN=C(c1ccccn1)c1ccccn1.[Co+3] [[Co(Dp4e4mT)2]^+]
14 | 3 ± 1 | CCN(C)C([S-])=NN=C(c1ccccn1)c1ccccn1.[Cl-].[Cu+2] [[Cu(Dp4e4mT)Cl]]
15 | 262 ± 78 | CCN(C)C([S-])=NN=C(c1ccccn1)c1ccccn1.[Cl-].[Pd+2] [[Pd(Dp4e4mT)Cl]]
16 | 76 ± 54 | CCN(C)C([S-])=NN=C(c1ccccn1)c1ccccn1.CCN(C)C([S-])=NN=C(c1ccccn1)c1ccccn1.[Ni+2] [[Ni(Dp4e4mT)2]]

Same assay, conditions: IC50 of MRC-5 cells/IC50 of AsPC-1 cells, 72 h/37 °C

Row | SMILES | Therapeutic index AsPC-1
17 | CCN(C)C([S-])=NN=C(c1ccccn1)c1ccccn1.CCN(C)C([S-])=NN=C(c1ccccn1)c1ccccn1.[Ga+3] [[Ga(Dp4e4mT)2]^+] | 154
18 | CCN(C)C([S-])=NN=C(c1ccccn1)c1ccccn1.CCN(C)C([S-])=NN=C(c1ccccn1)c1ccccn1.[Co+3] [[Co(Dp4e4mT)2]^+] | 2
19 | CCN(C)C([S-])=NN=C(c1ccccn1)c1ccccn1.[Cl-].[Cu+2] [[Cu(Dp4e4mT)Cl]] | 130
20 | CCN(C)C([S-])=NN=C(c1ccccn1)c1ccccn1.[Cl-].[Pd+2] [[Pd(Dp4e4mT)Cl]] | 3
21 | CCN(C)C([S-])=NN=C(c1ccccn1)c1ccccn1.CCN(C)C([S-])=NN=C(c1ccccn1)c1ccccn1.[Ni+2] [[Ni(Dp4e4mT)2]] | 62

Test system: not listed separately
Assay: Transmetallation kinetics with Cu(OAc)2 in DMSO (time-resolved UV-vis)
Assay type: physicochemical
Conditions: 10-fold excess of Cu(OAc)2 in DMSO, 25 °C
Description: The capacity of the Fe(III), Ni(II), Co(III), Zn(II), Ga(III), and Pd(II) complexes of Dp4e4mT to transmetallate with Cu(II) and/or Fe(III) to result in redox active Cu(II) and Fe(III) complexes could be critical in understanding their anti-proliferative efficacy, redox activity, and ability to oxidize oxy-Mb and oxy-Hb. To examine this, LC-MS spectrometry was performed in DMSO after the addition of 1 equivalent of FeCl3 or Cu(OAc)2 and the solutions then incubated for 24 h/20 °C due to slow reaction kinetics. This solution was then diluted 1 : 1 in methanol and LC-MS performed using a mobile phase consisting of 90% MeOH, 9.9% water, and 0.1% formic acid (Fig. S2–S9 ^†). These investigations were supported by EPR studies in DMSO after the addition of 1 equivalent of FeCl3 or Cu(OAc)2 incubated under the same conditions (Fig. 3A–G). As a third method to investigate transmetallation, kinetic studies using time-resolved UV-vis spectroscopy were performed under pseudo-first order conditions with a 10-fold excess of FeCl3 or Cu(OAc)2 in DMSO (Fig. S11–S16 ^†). The pseudo-first order rate constants were calculated from the time-dependent UV-vis spectroscopy data (at all wavelengths) with Reactlab Kinetics[49] and collected in Table S2. ^† […]
Time-dependent UV-Vis absorption spectra were measured on an Agilent 8453 diode array UV−Vis spectrophotometer, equipped with a thermostatted (± 0.1 °C) multicell transport cooled by a Huber Ministat 230 recirculating cooling bath. Spectral analysis was carried out with Reactlab Kinetics. 10 […]
Table S2. Observed pseudo first order rate constants (k obs, s−1) for reactions of each Dp4e4mT complex with a 10-fold excess of Cu(OAc) 2 or FeCl 3 in DMSO or water (pH 7.4 or 5.0) at 25 °C. […]
[Co(Dp4e4mT)2]+ No reaction No reaction No reaction No reaction […]
a Reaction could not be deciphered by UV-Vis spectroscopy; bchlorido ligand hydrolysis

Row | SMILES | Observed pseudo first order rate constant kobs, Cu(OAc)2 (only or first step)
22 | CCN(C)C([S-])=NN=C(c1ccccn1)c1ccccn1.CCN(C)C([S-])=NN=C(c1ccccn1)c1ccccn1.[Co+3] [[Co(Dp4e4mT)2]^+] | No reaction
23 | CCN(C)C([S-])=NN=C(c1ccccn1)c1ccccn1.[Cl-].[Pd+2] [[Pd(Dp4e4mT)Cl]] | No reaction

Same assay, conditions: Cu(OAc)2 in DMSO

Row | t½, transmetallation with Cu(OAc)2 [h] | SMILES
24 | 3 to 4 | CCN(C)C([S-])=NN=C(c1ccccn1)c1ccccn1.CCN(C)C([S-])=NN=C(c1ccccn1)c1ccccn1.[Ga+3] [[Ga(Dp4e4mT)2]^+]
25 | ~2 | CCN(C)C([S-])=NN=C(c1ccccn1)c1ccccn1.CCN(C)C([S-])=NN=C(c1ccccn1)c1ccccn1.[Ni+2] [[Ni(Dp4e4mT)2]]

Molecular target: T1, oxy-Hb in intact human erythrocytes (Homo sapiens, UniProt P68871+P69905)
T1 construct: Physiologically, oxy-Hb is found in erythrocytes; endogenous in cells; host or cells: intact human erythrocytes from fresh blood of healthy donors
Assay: Oxidation of oxy-Hb in intact human erythrocytes
Assay type: cell-based
Conditions: 10 μM, 3 h/37 °C
Description: Fig. 7 (A and B) Investigation of the effects of Dp4e4mT and its Fe(III), Co(III), Ni(II), Cu(II), Zn(II), Ga(III), and Pd(II) complexes versus DFO, Dp44mT, DpC and their Fe(III) complexes (10 μM) on met-Hb generation (% zero time) after an incubation of 1–3 h/20 °C with purified oxy-Hb (40 μM). (C) Investigation of the effects of Dp4e4mT and its Fe(III), Co(III), Ni(II), Cu(II), Zn(II), Ga(III), or Pd(II) complexes relative to the positive controls DFO, Dp44mT, DpC, and their Fe(III) complexes (10 μM) on oxy-Hb oxidation in intact human erythrocytes after a 3 h/37 °C incubation. Results are mean ± SD (3 experiments).
Physiologically, oxy-Hb is found in erythrocytes, and in the current investigation, the ligands and complexes (10 μM) were incubated with intact human erythrocytes for 3 h/37 °C to assess their effects on oxy-Hb oxidation (Fig. 7C). As expected from our previous studies,[28,39] […]
In experiments examining the activity of the agents, all complexes were dissolved in 1,2-propanediol, then diluted to 10 µM in PBS (pH 7.2). […]
1800; Shimadzu, Kyoto, Japan). Concentrations of met-Mb and met-Hb, as well as reduced-Mb and reduced-Hb, were determined at 409 nm and 435 nm, respectively. Concentrations of oxy-Mb and oxy-Hb were determined at 544 nm and 582 nm, respectively. 17 Oxidation of Oxy-Hb in Human Erythrocytes
Oxidation of oxy-Hb in human erythrocytes was performed by standard methods using fresh blood from healthy donors after collection in Vacutainer® collection tubes (BD, Plymouth, UK).8 Erythrocytes centrifuged (480 xg/5 min/4°C) and then washed in HBSS, and subsequently resuspended in this buffer. Incubation of the erythrocytes (15% hematocrit) in the absence or presence of the agents (10 μM) was performed for 3 h/37°C. The erythrocytes were […]

T1 sequence (P69905 2-142 limits assumed): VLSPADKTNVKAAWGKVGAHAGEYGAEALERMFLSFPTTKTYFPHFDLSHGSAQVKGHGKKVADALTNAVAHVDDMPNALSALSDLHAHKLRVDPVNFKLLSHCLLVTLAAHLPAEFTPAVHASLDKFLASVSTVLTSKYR
T1 sequence (P68871 2-147 limits assumed): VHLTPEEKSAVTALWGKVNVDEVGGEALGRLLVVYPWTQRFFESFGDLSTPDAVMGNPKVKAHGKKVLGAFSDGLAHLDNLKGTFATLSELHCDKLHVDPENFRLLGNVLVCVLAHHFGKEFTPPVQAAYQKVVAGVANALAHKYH

Row | oxy-Hb oxidation in erythrocytes versus the control (in words) | SMILES
26 | slight effect | CCN(C)C([S-])=NN=C(c1ccccn1)c1ccccn1.CCN(C)C([S-])=NN=C(c1ccccn1)c1ccccn1.[Ga+3] [[Ga(Dp4e4mT)2]^+]
27 | negligible effects on oxy-Hb oxidation | CCN(C)C([S-])=NN=C(c1ccccn1)c1ccccn1.CCN(C)C([S-])=NN=C(c1ccccn1)c1ccccn1.[Co+3] [[Co(Dp4e4mT)2]^+]
28 | negligible effects on oxy-Hb oxidation | CCN(C)C([S-])=NN=C(c1ccccn1)c1ccccn1.[Cl-].[Cu+2] [[Cu(Dp4e4mT)Cl]]
29 | negligible effects on oxy-Hb oxidation | CCN(C)C([S-])=NN=C(c1ccccn1)c1ccccn1.[Cl-].[Pd+2] [[Pd(Dp4e4mT)Cl]]
30 | negligible effects on oxy-Hb oxidation | CCN(C)C([S-])=NN=C(c1ccccn1)c1ccccn1.CCN(C)C([S-])=NN=C(c1ccccn1)c1ccccn1.[Ni+2] [[Ni(Dp4e4mT)2]]

Same assay, conditions: 10 μM, 3 h/37 °C, control 0.5%

Row | oxy-Hb oxidation to met-Hb in erythrocytes | SMILES
31 | 1.3 % of the total | CCN(C)C([S-])=NN=C(c1ccccn1)c1ccccn1.CCN(C)C([S-])=NN=C(c1ccccn1)c1ccccn1.[Ga+3] [[Ga(Dp4e4mT)2]^+]

Same assay, conditions: 10 μM, 3 h/37 °C, listed as Dp4e4mT Co(III) complex

Row | SMILES | oxy-Hb oxidation in erythrocytes versus the control (in words)
32 | CCN(C)C([S-])=NN=C(c1ccccn1)c1ccccn1.CCN(C)C([S-])=NN=C(c1ccccn1)c1ccccn1.[Co+3] [[Co(Dp4e4mT)2]^+] | no (p > 0.05) significant effect on oxy-Hb oxidation

Same assay, conditions: 10 μM, 3 h/37 °C, listed as Dp4e4mT Ni(II) complex

Row | SMILES | oxy-Hb oxidation in erythrocytes versus the control (in words)
33 | CCN(C)C([S-])=NN=C(c1ccccn1)c1ccccn1.CCN(C)C([S-])=NN=C(c1ccccn1)c1ccccn1.[Ni+2] [[Ni(Dp4e4mT)2]] | no (p > 0.05) significant effect on oxy-Hb oxidation

Same assay, conditions: 10 μM, 3 h/37 °C, listed as Dp4e4mT Pd(II) complex

Row | SMILES | oxy-Hb oxidation in erythrocytes versus the control (in words)
34 | CCN(C)C([S-])=NN=C(c1ccccn1)c1ccccn1.[Cl-].[Pd+2] [[Pd(Dp4e4mT)Cl]] | no (p > 0.05) significant effect on oxy-Hb oxidation
